Assay results published in patent US8546076B2, “Mutational profile in HIV-1 GAG cleavage site correlated with phenotypic drug resistance” (Tibotec Pharmaceuticals Ltd., priority 2007, dated 2013).
“And” between values parts separate entries of the source, which are not always exact repeats. Equal values may be shown once. Read-outs that look alike come from different tables or passages of the source.

Tested on: HIV-1
Settings: for Change versus baseline in log10 viral load (NC = F, non-VF censored), Mean (SE) / Virologic response rate (TLOVR, non-VF censored) defined as a decrease ≧1.0 log10 in plasma viral load versus baseline / Virologic response rate (TLOVR, non-VF censored) defined as a viral load <50 HIV-1 RNA copies/mL / mean changes versus baseline in viral load (size of decrease): Week 24; for mean changes versus baseline in viral load (size of decrease): E428G and/or R452S at baseline
Description: Virologic response was defined as viral load ≦50 copies/mL at week 24.
GAG genotypic analysis was performed on virus isolates from subjects of pooled trials.
Virological failures were defined using the TLOVR non-virologic failure (VF)-censored algorithm in which the responses at time points after discontinuation are not imputed (i.e. left missing) for patients who drop for reasons other than virologic failures. Using this imputation, patients that drop out for reasons other than viro logic failure are not automatically considered as rebounders or non-responders.
Genotypic analyses were performed by automated population-based sequencing. Sequence data were aligned to the wildtype HIV-1/HXB2CG reference and reported as amino acid changes along GAG and PR. Genotypic mixtures (a combination of different amino acids at 1 position) were reported. Amino acids were presented with their one letter code. Mutations in the 5 PR cleavage sites in the GAG region, encompassing the amino acids 128-137 (p17/p24), 359-368 (p24/p2), 373-382 (p2/p7), 428-437 (p7/p1), and 444-453 (p1/p6), were reported.
Virologic response was defined using the TLOVR non-VF censored algorithm eliminating patients who had no chance to respond (discontinuation before Week 16). Several endpoints to assess virologic response, e.g. proportion of responders with confirmed 1.0 log10 decrease in viral load versus baseline, change in viral load from baseline (NC=F), and proportion of responders with viral load <50 or <400 HIV-1 RNA copies/mL were evaluated.
Virologic response was defined using the TLOVR, non-VF censored algorithm eliminating patients who had no chance to respond (discontinuation before Week 16), resulting in 445 subjects included in the analysis. To assess outcome, several endpoints including the primary endpoint (proportion of responders with confirmed 1.0 log10 decrease in viral load at Week 24), change in viral load from baseline at Week 24 and proportion of responders with viral load <50 HIV-1 RNA copies/mL at Week 24 were evaluated.
Only mutations present at baseline in 10 subjects of the no/non-naïve ENF group (N=327) were taken into consideration.

[1] = E428G (p7/p1) at baseline, All subjects
[2] = E428G (p7/p1) at baseline, naïve ENF
[3] = R452S (p1/p6) at baseline, All subjects
[4] = R452S (p1/p6) at baseline, naïve ENF

darunavir/ritonavir [DRV/rtv]
Change versus baseline in log10 viral load (NC = F, non-VF censored), Mean (SE) [1]: −1.07 (0.298) log10 HIV-1 RNA copies/mL
Virologic response rate (TLOVR, non-VF censored) defined as a decrease ≧1.0 log10 in plasma viral load versus baseline [1]: 9 (47.4) %
Virologic response rate (TLOVR, non-VF censored) defined as a viral load <50 HIV-1 RNA copies/mL [1]: 3 (15.8) %
Change versus baseline in log10 viral load (NC = F, non-VF censored), Mean (SE) [2]: −1.72 (0.763) log10 HIV-1 RNA copies/mL
Virologic response rate (TLOVR, non-VF censored) defined as a decrease ≧1.0 log10 in plasma viral load versus baseline [2]: 3 (75.0) %
Virologic response rate (TLOVR, non-VF censored) defined as a viral load <50 HIV-1 RNA copies/mL [2]: 1 (25.0) %
Change versus baseline in log10 viral load (NC = F, non-VF censored), Mean (SE) (E428G (p7/p1) at baseline, no/non-naïve ENF): −0.89 (0.318) log10 HIV-1 RNA copies/mL
mean changes versus baseline in viral load (size of decrease) (no/non-naïve ENF): < 1.0 log10 and > 0.5 log10
mean changes versus baseline in viral load (size of decrease) (other subgroups (All, naïve ENF)): > 1.0 log10
Virologic response rate (TLOVR, non-VF censored) defined as a viral load <50 HIV-1 RNA copies/mL (L449P (p1/p6) at baseline, All subjects): 12 (36.4) %
Virologic response rate (TLOVR, non-VF censored) defined as a viral load <50 HIV-1 RNA copies/mL (L449P (p1/p6) at baseline, naïve ENF): 6 (50.0) %
Change versus baseline in log10 viral load (NC = F, non-VF censored), Mean (SE) (Overall, All subjects): −1.84 (0.061) log10 HIV-1 RNA copies/mL
Virologic response rate (TLOVR, non-VF censored) defined as a decrease ≧1.0 log10 in plasma viral load versus baseline (Overall, All subjects): 315 (70.8) %
Virologic response rate (TLOVR, non-VF censored) defined as a viral load <50 HIV-1 RNA copies/mL (Overall, All subjects): 207 (46.5) %
Change versus baseline in log10 viral load (NC = F, non-VF censored), Mean (SE) (Overall, naïve ENF): −2.33 (0.109) log10 HIV-1 RNA copies/mL
Virologic response rate (TLOVR, non-VF censored) defined as a decrease ≧1.0 log10 in plasma viral load versus baseline (Overall, naïve ENF): 102 (86.4) %
Virologic response rate (TLOVR, non-VF censored) defined as a viral load <50 HIV-1 RNA copies/mL (Overall, naïve ENF): 66 (55.9) %
Change versus baseline in log10 viral load (NC = F, non-VF censored), Mean (SE) (Overall, no/non-naïve ENF): −1.67 (0.071) log10 HIV-1 RNA copies/mL
Change versus baseline in log10 viral load (NC = F, non-VF censored), Mean (SE) [3]: −1.12 (0.293) log10 HIV-1 RNA copies/mL
Virologic response rate (TLOVR, non-VF censored) defined as a decrease ≧1.0 log10 in plasma viral load versus baseline [3]: 12 (48.0) %
Virologic response rate (TLOVR, non-VF censored) defined as a viral load <50 HIV-1 RNA copies/mL [3]: 7 (28.0) %
Change versus baseline in log10 viral load (NC = F, non-VF censored), Mean (SE) [4]: −2.50 (0.276) log10 HIV-1 RNA copies/mL
Virologic response rate (TLOVR, non-VF censored) defined as a decrease ≧1.0 log10 in plasma viral load versus baseline [4]: 7 (100) %
Virologic response rate (TLOVR, non-VF censored) defined as a viral load <50 HIV-1 RNA copies/mL [4]: 6 (85.7) %
Change versus baseline in log10 viral load (NC = F, non-VF censored), Mean (SE) (R452S (p1/p6) at baseline, no/non-naïve ENF): −0.58 (0.312) log10 HIV-1 RNA copies/mL
Virologic response rate (TLOVR, non-VF censored) defined as a viral load <50 HIV-1 RNA copies/mL (S451T (p1/p6) at baseline, All subjects): 4 (18.2) %
Virologic response rate (TLOVR, non-VF censored) defined as a viral load <50 HIV-1 RNA copies/mL (S451T (p1/p6) at baseline, naïve ENF): 1 (12.5) %
virologic response (viral load ≦50 copies/mL) relative to overall response (week 24, E428G at baseline, univariate analysis, N=467): < 75 % of overall response
